Data: US11285127B2, “Compositions and methods for lowering triglycerides without raising LDL-C levels in a subject on concomitant statin therapy” (Amarin Pharmaceuticals Ireland Limited, priority 2013, dated 2022)

Test system: patients with fasting triglyceride levels >200 mg/dl and <500 mg/dl despite statin therapy
Experiment: 12-week study: plasma fatty acids (EPA concentration, FADI ratios) by gas chromatography/flame ionization detection
Type: in vivo, human
Conditions: 4 g/day, placebo-adjusted, 12 weeks
Experimental: A multi-center, placebo-controlled, randomized, double-blind, 12-week study was performed to evaluate the efficacy and safety of >96% E-EPA in patients with fasting triglyceride levels >200 mg/dl and <500 mg/dl despite statin therapy (the mean of two qualifying entry values needed to be >185 mg/dl and at least one of the values needed to be >200 mg/dl). The primary objective of the study was to determine the efficacy of >96% E-EPA 2 g daily and 4 g daily, compared to placebo, in lowering fasting TG levels in patients with high risk for cardiovascular disease and with fasting TG levels 200 mg/dl and <500 mg/dl, despite treatment to LDL-C goal on statin therapy. The secondary objectives of this study were the following: • 1. To determine the safety and tolerability of >96% E-EPA 2 g daily and 4 g daily; • 2. To determine the effect of >96% E-EPA on lipid and apolipoprotein profiles including total cholesterol (TC), non-high-density lipoprotein cholesterol (non-HDL-C), low density lipoprotein cholesterol (LDL-C), high density lipoprotein cholesterol (HDL-C), and […]; • 3. To determine the effect of >96% E-EPA on lipoprotein associated phospholipase A2 (Lp-PLA2) from baseline to week 12; • 4. To determine the effect of >96% E-EPA on low-density lipoprotein (LDL) particle number and size; • 5. […]

CC/C=C\C/C=C\C/C=C\C/C=C\C/C=C\CCCC(=O)OCC [AMR101, ethyl eicosapentaenoate]
FADI-16 (Palmitoleic acid/Palmitic acid, C16:1/C16:0), % Change, Plasma: −6.8%
FADI-18 (Oleic acid/Stearic Acid, C18:1/C18:0), % Change, Plasma: −9.8%
